Entries after “also recorded” stand apart in the source; their conditions may differ. Peptide text beside a SMILES is read from it.
What was measured:
Assay type in all cases: cell-based
IL-23 receptor [1] = target: T1, IL-23 receptor (Homo sapiens, UniProt Q5VWK5); assay: IL-23-induced TNFα production in PMA-activated HL-60 monocytes (ELISA); set-up: endogenous in cells; conditions: IL-23 10 ng/ml, ELISA 24 hours after stimulation, read-out: Emax, inhibition of IL-23-induced TNF formation
T1 sequence (Q5VWK5 24-629): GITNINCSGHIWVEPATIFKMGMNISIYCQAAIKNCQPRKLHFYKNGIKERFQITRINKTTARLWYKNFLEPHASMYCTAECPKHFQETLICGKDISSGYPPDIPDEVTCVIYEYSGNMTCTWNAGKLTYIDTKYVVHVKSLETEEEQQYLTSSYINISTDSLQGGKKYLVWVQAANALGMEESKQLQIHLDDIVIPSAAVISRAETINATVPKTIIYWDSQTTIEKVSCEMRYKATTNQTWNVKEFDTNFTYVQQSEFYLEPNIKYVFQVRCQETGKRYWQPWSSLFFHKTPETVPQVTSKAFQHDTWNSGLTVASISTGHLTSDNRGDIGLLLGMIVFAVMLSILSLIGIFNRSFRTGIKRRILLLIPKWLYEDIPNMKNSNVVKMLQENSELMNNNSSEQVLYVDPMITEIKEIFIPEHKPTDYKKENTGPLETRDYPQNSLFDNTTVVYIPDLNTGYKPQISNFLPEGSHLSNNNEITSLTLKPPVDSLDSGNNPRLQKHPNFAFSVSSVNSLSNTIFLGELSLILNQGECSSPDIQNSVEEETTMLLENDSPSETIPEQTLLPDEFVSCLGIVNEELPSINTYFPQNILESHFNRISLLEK
Procedure: FIGS. 3A and 3B are graphs showing inhibition of IL-23-induced STAT3 phosphorylation and TNFα generation. […] Western Blot analysis was performed on cell lysates, and immunoblot densitometry was measured using ImagePro4+ software. […] TNFα production was quantified by ELISA 24 hours after stimulation with IL-23 using the Quantikine ELISA Kit (R&D systems).
D-peptides 2303, 2305, 2307 and 2309 (1 μM) inhibit IL-23-induced STAT3 phosphorylation in phorbol 12-myristate 13-acetate (PMA)-activated human monocytes (HL-60) (FIG. 2).

IL-23 receptor [2] = target: T1, IL-23 receptor; assay: IL-23-induced STAT3 phosphorylation in PMA-activated HL-60 monocytes (Western blot); set-up: endogenous in cells; conditions: PMA-activated HL-60 human monocytes; peptide 1 μM, 30 min pre-incubation; IL-23 10 ng/ml, 15 min
Procedure: FIG. 2 is a graph showing the results of efficacy screening of peptides designed from the IL-23 receptor. HL-60 human monocytes were pre-incubated for 30 minutes with the particular peptides (1 μM) and stimulated for 15 minutes with IL-23 (10 ng/ml). Western Blot analysis of phosphorylated-STAT3 and total STAT3 was performed on cell lysates. Immunoblot densitometry was measured using ImagePro4+ software. […] FIGS. 3A and 3B are graphs showing inhibition of IL-23-induced STAT3 phosphorylation and TNFα generation. […] Western Blot analysis was performed on cell lysates, and immunoblot densitometry was measured using ImagePro4+ software. […] TNFα production was quantified by ELISA 24 hours after stimulation with IL-23 using the Quantikine ELISA Kit (R&D systems). […] D-peptides 2303, 2305, 2307 and 2309 (1 μM) inhibit IL-23-induced STAT3 phosphorylation in phorbol 12-myristate 13-acetate (PMA)-activated human monocytes (HL-60) (FIG. 2).

IL-23R = target: T2, IL-23R (Mus musculus, UniProt Q8K4B4); assay: IL-23-induced STAT3 phosphorylation in differentiated TH17 cells (Alpha Screen SureFire p-STAT-3); conditions: listed as APG-2309
T2 construct: Spleens were sterilely removed from mice, sliced, and mashed in the presence of PBS buffer; from tissue; host or cells: mouse spleen: freshly isolated splenocytes, and CD4+ cells differentiated into TH17 cells
T2 sequence (Q8K4B4 24-644): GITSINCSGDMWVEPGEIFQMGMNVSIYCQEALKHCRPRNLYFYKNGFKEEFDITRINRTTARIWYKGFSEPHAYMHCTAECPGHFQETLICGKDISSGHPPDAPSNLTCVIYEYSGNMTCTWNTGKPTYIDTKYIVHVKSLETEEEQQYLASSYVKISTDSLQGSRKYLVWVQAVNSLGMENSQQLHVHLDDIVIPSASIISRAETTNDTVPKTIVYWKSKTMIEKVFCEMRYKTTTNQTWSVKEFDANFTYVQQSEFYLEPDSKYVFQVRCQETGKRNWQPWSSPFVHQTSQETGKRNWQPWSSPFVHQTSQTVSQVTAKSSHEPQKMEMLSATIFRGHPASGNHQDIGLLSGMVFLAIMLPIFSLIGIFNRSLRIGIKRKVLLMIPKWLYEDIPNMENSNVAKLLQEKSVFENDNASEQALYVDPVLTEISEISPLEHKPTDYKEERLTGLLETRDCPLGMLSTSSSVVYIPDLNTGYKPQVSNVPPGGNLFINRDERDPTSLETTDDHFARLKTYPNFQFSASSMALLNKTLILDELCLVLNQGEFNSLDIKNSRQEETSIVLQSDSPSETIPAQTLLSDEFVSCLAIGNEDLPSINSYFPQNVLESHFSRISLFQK
Procedure: CD4+ cells were isolated from 2.5×10^8 splenocytes with the EasySep isolation kit (StemCell Technologies) according to the manufacturer's instructions. CD4+ cells were incubated overnight with non-essential amino acids and anti-CD3 and CD28 antibodies (see above). The next day the cells were split into 12-well plates (1-2×10^6 cells/well) and incubated with complete RPMI medium (10% FBS, Pen/Strep, and non-essential amino acids (1×)) and a differentiation cocktail containing 2 μg/ml of anti-CD3, 2 μg/ml of anti-CD28, 5 ng/ml of TGFb1, 20 ng/ml of IL-6, 10 ng/ml of IL-23, 2 μg/ml of anti-rat anti IFNγ and 10 μg/ml of anti-mouse IL-4 (final concentrations).
Splenocytes or TH17 cells were distributed in 384-well plates (Optiplate; Perkin Elmer) (100,000 cells/well). Cells were pre-incubated for 30 minutes with different concentrations of peptide APG-2305 or APG-2309 and incubated with 25 ng/ml of IL-23 (R&D systems) for 10 minutes. STAT3 phosphorylation was determined with the kit Alpha Screen SureFire p-STAT-3 assay from Perkin Elmer according to manufacturer's instructions. Briefly, after incubation with IL-23, cells were lysed and contacted with (1) protein A acceptor conjugated beads coated with anti-p-STAT-3 (Tyr705) and (2) streptavidin-coated donor beads. The resulting signal was measured with a Perkin Elmer Wallac En vision 2104 Multilabel reader. […]

## CSCC[C@@H](N)C(=O)N[C@H](CCC(=O)O)C(=O)N[C@H](CCC(=O)O)C(=O)N[C@H](CO)C(=O)N[C@H](CCCCN)C(=O)N[C@H](CCC(N)=O)C(=O)N[C@H](CC(C)C)C(=O)N[C@H](CCC(N)=O)C(=O)N[C@H](CC(C)C)C(=O)O [Peptide 2309, MEESKQLQL] (HELM PEPTIDE1{[dM].[dE].[dE].[dS].[dK].[dQ].[dL].[dQ].[dL]}$$$$V2.0; N-terminus and C-terminus assumed)
IL-23 receptor [1]
  Emax: ~80%
IL-23 receptor [2]
  effect on IL-23-induced STAT3 phosphorylation: demonstrable efficacy; also recorded: inhibit; also recorded: remained capable of inhibiting
IL-23R
  effect on IL-23-induced STAT3 phosphorylation: inhibit; also recorded: showed efficacy

Source: patent US20100190710A1, “IL-23 RECEPTOR ANTAGONISTS AND USES THEREOF” (Valorisation HSJ, Societe en Commandite, priority 2007, published 2010)
